Results published in ChEMBL document CHEMBL1201862, “PubChem BioAssay data set” (2004).
Calls of active or inactive are those of the source.

Assays:
[1] = molecular target: T1, Sentrin-specific protease 6 (Homo sapiens, UniProt Q9GZR1); test: SAR Analysis of small molecule inhibitors of Sentrin-specific protease 6 (SENP6) using a Luminescent assay. [Related pubchem assays (depositor defined):AID2582, AID2599]; assay type: functional
T1 sequence (Q9GZR1 whole entry): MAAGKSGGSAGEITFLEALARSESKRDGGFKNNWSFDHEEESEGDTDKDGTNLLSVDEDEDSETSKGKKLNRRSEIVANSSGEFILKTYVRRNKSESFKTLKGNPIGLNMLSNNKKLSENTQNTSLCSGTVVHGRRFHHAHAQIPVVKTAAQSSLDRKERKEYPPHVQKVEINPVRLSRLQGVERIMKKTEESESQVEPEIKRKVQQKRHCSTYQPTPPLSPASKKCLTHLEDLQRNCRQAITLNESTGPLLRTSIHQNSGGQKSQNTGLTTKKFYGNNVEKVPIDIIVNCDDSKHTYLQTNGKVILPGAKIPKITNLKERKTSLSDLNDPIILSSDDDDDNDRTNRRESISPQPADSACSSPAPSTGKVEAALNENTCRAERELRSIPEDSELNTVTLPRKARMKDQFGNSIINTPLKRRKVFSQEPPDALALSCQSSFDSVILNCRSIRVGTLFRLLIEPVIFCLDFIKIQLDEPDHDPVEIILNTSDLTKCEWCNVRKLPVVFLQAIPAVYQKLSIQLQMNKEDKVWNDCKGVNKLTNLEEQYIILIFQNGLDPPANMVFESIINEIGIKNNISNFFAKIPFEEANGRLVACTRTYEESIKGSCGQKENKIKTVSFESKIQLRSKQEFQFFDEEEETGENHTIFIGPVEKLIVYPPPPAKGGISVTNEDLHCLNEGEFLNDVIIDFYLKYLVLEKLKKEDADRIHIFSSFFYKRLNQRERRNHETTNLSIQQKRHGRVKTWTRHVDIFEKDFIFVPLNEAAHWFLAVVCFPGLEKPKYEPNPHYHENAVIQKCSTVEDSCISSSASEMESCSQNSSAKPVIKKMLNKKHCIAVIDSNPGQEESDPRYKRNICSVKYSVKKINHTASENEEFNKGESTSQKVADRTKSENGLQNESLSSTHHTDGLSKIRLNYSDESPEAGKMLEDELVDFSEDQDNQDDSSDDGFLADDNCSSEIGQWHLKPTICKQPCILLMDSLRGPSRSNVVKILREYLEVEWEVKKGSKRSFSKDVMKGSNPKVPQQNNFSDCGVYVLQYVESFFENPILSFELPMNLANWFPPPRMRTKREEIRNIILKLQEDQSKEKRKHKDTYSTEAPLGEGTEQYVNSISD

[2] = molecular target: T2, Caspase-3 (Homo sapiens, UniProt P42574); test: SAR Analysis of small molecule inhibitors of Sentrin-specific proteases (SENPs) using a Caspase-3 Selectivity assay. [Related pubchem assays (depositor defined):AID2540, AID2599, AID434973, AID489001]; assay type: functional
T2 sequence (P42574 whole entry): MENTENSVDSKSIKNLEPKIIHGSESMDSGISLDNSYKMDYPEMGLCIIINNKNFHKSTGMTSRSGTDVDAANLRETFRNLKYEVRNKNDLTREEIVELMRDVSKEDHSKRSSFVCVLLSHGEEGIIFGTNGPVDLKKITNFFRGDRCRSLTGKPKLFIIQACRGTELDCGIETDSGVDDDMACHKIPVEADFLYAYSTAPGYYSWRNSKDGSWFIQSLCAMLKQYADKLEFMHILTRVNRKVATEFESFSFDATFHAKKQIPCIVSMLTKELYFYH

[3] = molecular target: T3, Sentrin-specific protease 8 (Homo sapiens, UniProt Q96LD8); test: SENP8 protease inhibitors, SAR follow-up, biochemical, luminescence (AID 504501); assay type: functional
T3 sequence (Q96LD8 whole entry): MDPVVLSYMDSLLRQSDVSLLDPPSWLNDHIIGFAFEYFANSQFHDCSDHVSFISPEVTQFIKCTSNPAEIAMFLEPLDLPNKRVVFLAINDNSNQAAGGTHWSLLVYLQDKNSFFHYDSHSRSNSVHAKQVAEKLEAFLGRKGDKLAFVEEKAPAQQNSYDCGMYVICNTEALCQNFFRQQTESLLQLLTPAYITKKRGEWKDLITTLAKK

[4] = molecular target: T4, Sentrin-specific protease 7 (Homo sapiens, UniProt Q9BQF6); test: SENP7 protease inhibitors, SAR follow-up, biochemical, luminescence (AID 504497); assay type: functional
T4 sequence (Q9BQF6 whole entry): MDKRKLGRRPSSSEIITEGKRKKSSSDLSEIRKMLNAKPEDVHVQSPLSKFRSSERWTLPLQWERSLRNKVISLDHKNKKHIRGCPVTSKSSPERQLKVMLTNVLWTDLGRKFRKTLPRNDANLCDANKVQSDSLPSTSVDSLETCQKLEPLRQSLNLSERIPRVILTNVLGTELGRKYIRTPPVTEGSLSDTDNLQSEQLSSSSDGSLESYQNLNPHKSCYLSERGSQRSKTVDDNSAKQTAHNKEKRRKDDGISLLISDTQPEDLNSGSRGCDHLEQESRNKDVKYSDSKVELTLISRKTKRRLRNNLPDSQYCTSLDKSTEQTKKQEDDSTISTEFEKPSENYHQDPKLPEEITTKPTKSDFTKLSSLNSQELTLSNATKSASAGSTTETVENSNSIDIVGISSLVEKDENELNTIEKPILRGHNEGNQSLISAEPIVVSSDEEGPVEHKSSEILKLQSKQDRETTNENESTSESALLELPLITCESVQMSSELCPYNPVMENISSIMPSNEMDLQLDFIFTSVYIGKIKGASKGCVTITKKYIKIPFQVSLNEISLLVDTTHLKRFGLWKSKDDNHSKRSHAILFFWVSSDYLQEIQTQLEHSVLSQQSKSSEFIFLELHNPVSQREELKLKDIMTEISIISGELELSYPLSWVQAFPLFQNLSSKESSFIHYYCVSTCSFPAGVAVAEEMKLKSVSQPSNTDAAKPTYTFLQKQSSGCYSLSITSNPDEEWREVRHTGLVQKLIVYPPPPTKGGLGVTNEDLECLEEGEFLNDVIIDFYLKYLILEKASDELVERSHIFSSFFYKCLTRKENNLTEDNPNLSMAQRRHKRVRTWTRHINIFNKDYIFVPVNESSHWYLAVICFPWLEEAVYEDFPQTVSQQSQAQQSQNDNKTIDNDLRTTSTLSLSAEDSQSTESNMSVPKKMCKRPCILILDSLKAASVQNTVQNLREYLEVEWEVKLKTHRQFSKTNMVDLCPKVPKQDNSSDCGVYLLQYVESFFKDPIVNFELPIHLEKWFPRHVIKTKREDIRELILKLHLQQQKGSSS

[5] = system: SN12K1; test: cells; assay type: functional; conditions: Homo sapiens
[6] = ZM109 Env clade C HIV-1 fusion inhibitors, dose response, HeLa effector, CEM target cells, luciferase, cherry-pick (AID 652058); assay type: functional, cell-based
[7] = system: P388/ADR; test: cells; assay type: functional; conditions: Mus musculus
[8] = system: P388; test: cells; assay type: functional; conditions: Mus musculus
[9] = off-target signal loss in HeLa-CEM21 co-culture – HeLa F-luc CTL cells, cherry-picked, counter-screen for HIV-1 Env fusion inhibitor project, dose response (AID 652040); assay type: functional, cell-based;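 note: potency for signal decrease marking cytotoxic or nonspecific inhibition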
[10] = inhibitors of HIV Env-driven cell fusion, dose response, cherry-pick (AID 652057); assay type: functional, cell-based
[11] = molecular target: T5, Apoptotic protease-activating factor 1 (Homo sapiens, UniProt O14727); test: SAR analysis of small molecule Activators of Apaf-1 in a Fluorescent assay.; assay type: functional; conditions: read-out: EC50_Mean;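 note: caspase-3 cleavage of fluorogenic Rh110 DEVD substrate downstream of apoptosome activation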
T5 sequence (O14727 whole entry): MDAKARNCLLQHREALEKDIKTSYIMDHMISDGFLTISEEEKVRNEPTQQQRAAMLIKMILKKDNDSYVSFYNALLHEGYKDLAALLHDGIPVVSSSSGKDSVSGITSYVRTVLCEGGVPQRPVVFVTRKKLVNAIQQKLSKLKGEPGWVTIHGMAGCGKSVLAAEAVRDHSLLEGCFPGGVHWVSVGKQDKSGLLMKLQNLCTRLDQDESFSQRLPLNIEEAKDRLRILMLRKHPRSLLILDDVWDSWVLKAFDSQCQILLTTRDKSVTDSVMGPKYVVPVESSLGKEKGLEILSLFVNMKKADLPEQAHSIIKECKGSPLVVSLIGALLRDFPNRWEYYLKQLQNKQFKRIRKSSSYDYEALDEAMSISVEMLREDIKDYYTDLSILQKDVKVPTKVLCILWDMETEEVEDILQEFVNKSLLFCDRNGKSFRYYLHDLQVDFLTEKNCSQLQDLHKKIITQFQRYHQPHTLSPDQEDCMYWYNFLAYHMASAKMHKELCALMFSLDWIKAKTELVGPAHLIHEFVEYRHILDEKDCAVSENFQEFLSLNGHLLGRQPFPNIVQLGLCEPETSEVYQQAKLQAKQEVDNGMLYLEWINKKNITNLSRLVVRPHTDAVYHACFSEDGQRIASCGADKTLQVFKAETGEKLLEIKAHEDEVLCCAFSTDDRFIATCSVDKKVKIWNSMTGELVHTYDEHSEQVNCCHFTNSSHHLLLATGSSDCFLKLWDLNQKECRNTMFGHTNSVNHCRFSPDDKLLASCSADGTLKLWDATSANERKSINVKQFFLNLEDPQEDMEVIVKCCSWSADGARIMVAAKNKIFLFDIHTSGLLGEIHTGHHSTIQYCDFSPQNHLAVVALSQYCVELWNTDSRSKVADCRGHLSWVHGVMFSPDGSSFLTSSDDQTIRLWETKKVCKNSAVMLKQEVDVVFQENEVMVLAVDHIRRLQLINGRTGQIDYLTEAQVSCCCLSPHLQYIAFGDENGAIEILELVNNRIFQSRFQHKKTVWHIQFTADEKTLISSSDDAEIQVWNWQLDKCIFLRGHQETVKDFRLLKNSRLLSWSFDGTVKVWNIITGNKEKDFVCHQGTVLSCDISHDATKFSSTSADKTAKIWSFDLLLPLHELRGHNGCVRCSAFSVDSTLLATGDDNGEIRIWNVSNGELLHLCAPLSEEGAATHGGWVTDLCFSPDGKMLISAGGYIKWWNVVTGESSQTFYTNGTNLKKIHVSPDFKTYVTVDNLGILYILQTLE

[12] = molecular target: T2, Caspase-3; assay type: functional
[13] = molecular target: T4, Sentrin-specific protease 7; assay type: functional
[14] = molecular target: T1, Sentrin-specific protease 6; assay type: functional
[15] = system: Streptococcus sp. 'group A'; test: growth inhibition of control SK(-) GAS strain, dose response, counter-screen for streptokinase expression inhibitor project, luminescence, kanamycin, BacTiterGlo, confirmation (AID 1900); assay type: functional, organism-based
[16] = molecular target: T3, Sentrin-specific protease 8; assay type: functional
[17] = system: Streptococcus; test: Group A Streptococcus viability loss, dose response, counter-screen for streptokinase expression inhibitor project, luminescence, BacTiterGlo (AID 1915); assay type: functional, organism-based;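 note: potency for reduction of bacterial viability or growth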
[18] = system: HT-1080; test: cytotoxicity in HT1080 fibrosarcoma cells, cell-based, fluorescence readout (AID 620); assay type: functional; conditions: Homo sapiens
[19] = molecular target: Luciferin 4-monooxygenase (Photinus pyralis, UniProt P08659); test: Counter Screen for Luciferase-based Assay Positives. [Related pubchem assays: 620, 618, 411 ]
Chain of Luciferin 4-monooxygenase (P08659 whole entry): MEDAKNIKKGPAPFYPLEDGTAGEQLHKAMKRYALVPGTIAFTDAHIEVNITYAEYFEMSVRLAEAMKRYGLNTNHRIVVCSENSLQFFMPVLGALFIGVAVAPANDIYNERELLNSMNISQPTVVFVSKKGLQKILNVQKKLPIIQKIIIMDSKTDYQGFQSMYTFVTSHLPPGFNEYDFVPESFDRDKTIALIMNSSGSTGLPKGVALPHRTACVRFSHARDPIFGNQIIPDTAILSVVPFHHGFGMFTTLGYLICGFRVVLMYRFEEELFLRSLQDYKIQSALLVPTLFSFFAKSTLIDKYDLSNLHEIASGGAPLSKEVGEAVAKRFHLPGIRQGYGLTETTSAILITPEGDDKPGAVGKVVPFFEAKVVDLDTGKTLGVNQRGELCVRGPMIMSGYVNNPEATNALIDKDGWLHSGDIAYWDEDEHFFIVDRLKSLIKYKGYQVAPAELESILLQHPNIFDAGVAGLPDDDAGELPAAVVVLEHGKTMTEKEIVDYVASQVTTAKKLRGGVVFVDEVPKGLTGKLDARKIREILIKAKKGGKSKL

[20] = HEp-2 cell cytotoxicity, dose response, cytotoxicity control for RSV inhibitor project, HTS (AID 2410); assay type: functional; conditions: human respiratory syncytial virus

Row | Structure (SMILES) | IC50 [1] | IC50 [2] | IC50 [3] | IC50 [4] | GI50 [5] | GI50 [7] | GI50 [8] | further results
1 | C(=N\Nc1ccccc1)/c1cn(Cc2ccccc2)c2ccccc12 | > 99 µM (inactive) | > 99 µM (inactive) | > 99 µM (inactive) | > 99 µM (inactive) |  |  |  | 
2 | Nc1ccn(C2OC(COC(=O)C34CC5CC(CC(C5)C3)C4)C(O)C2O)c(=O)n1 (centres undefined) |  |  |  |  | 4.46 µM (inactive) | 0.889 µM (active) | 0.506 µM (active) | AC50 [6]: < 0.26 µM (active); AC50 [9]: 36.9 µM (active); AC50 [10]: 0.652 µM (active)
3 | CCc1ccc(-c2nc(/C=C/c3ccc(F)cc3)no2)cc1 | > 99 µM (inactive) | > 99 µM (inactive) | > 99 µM (inactive) | > 99 µM (inactive) |  |  |  | 
4 | c1cc2n(n1)CCN2 |  |  |  |  | 1150 µM (inactive) | 294 µM (inactive) | 361 µM (inactive) | 
5 | O=C(Nc1nc2ccsc2c(=O)s1)c1cccs1 |  |  |  |  |  |  |  | EC50 [11]: > 100 µM (inactive)
6 | COc1cc(NC(=O)Nc2ccc(F)cc2)cc2sc(NC(=O)c3ccccc3)nc12 | > 99 µM (inactive) | > 99 µM (inactive) | > 99 µM (inactive) | > 99 µM (inactive) |  |  |  | 
7 | CCCSc1nc(COC(=O)NC)c(COC(=O)NC)n1C |  |  |  |  | > 100 µM (inactive) | 23.8 µM (inactive) | 21.1 µM (inactive) | 
8 | Cc1ccc(O)c(NC(=O)C2CC(c3ccc(F)cc3)=NO2)c1 (centres undefined) |  |  |  |  |  |  |  | EC50 [11]: > 100 µM (inactive)
9 | Cc1cccc2sc(NC(=O)c3ccc(NS(=O)(=O)c4cccs4)cc3)nc12 |  |  |  |  |  |  |  | IC50 [12]: 36.5 µM (active); IC50 [13]: 7.27 µM (active); IC50 [14]: 8.6 µM (active); EC50 [15]: 2.22 µM (active); IC50 [16]: 11.6 µM (active); EC50 [17]: 3.77 µM (active)
10 | CCCC(=O)Nc1ccc(-c2nc3cc(C)ccc3o2)cc1 |  |  |  |  |  |  |  | IC50 [12]: 23.5 µM (active); IC50 [13]: 4.35 µM (active); IC50 [14]: 64.7 µM (active); IC50 [16]: 45.2 µM (active); EC50 [18]: > 50 µM (not active); EC50 [19]: 0.21 µM (active); CC50 [20]: 26.7 µM (active)
